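Dose response: 5 concentrations. Exposure: 48 h. Format: 96-well plates. Endpoint: linear interpolation; highest concentration if not reached. At the GI50, growth is halved. TGI marks complete inhibition of growth.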
What was measured:
Assay in all cases: growth of human tumour cells (NCI), 48 h
SN12C renal = test system: SN12C renal
M14 melanoma = test system: M14 melanoma
HS 578T breast = test system: HS 578T breast
IGROV1 ovarian = test system: IGROV1 ovarian
SF-295 CNS = test system: SF-295 CNS
SK-MEL-28 melanoma = test system: SK-MEL-28 melanoma
TK-10 renal = test system: TK-10 renal
OVCAR-5 ovarian = test system: OVCAR-5 ovarian
UACC-257 melanoma = test system: UACC-257 melanoma
SNB-75 CNS = test system: SNB-75 CNS
NCI-H226 lung = test system: NCI-H226 lung
SK-MEL-5 melanoma = test system: SK-MEL-5 melanoma
EKVX NSCLC = test system: EKVX NSCLC
HT29 colon = test system: HT29 colon
DU-145 prostate = test system: DU-145 prostate
MDA-MB-231 breast = test system: MDA-MB-231 breast
HOP-62 NSCLC = test system: HOP-62 NSCLC
HCT-116 colon = test system: HCT-116 colon
HCT-15 colon = test system: HCT-15 colon
HOP-92 NSCLC = test system: HOP-92 NSCLC
U251 CNS = test system: U251 CNS
KM12 colon = test system: KM12 colon
UACC-62 melanoma = test system: UACC-62 melanoma
A549 NSCLC = test system: A549 NSCLC
MCF7 breast = test system: MCF7 breast
NCI-H23 lung = test system: NCI-H23 lung
COLO 205 colon = test system: COLO 205 colon
SF-268 CNS = test system: SF-268 CNS
ACHN renal = test system: ACHN renal
BT-549 breast = test system: BT-549 breast

In the case of `O=S(=O)(NC1CC2CCC1C2)c1ccc2c(c1)C(=NO)c1cc(S(=O)(=O)NC3CC4CCC3C4)ccc1-2` (stereo unspecified), the TGI (SN12C renal) is reported as 25.8 µM, the GI50 (M14 melanoma) is reported as 4.42 µM and the TGI (M14 melanoma) is reported as over 100 µM. For the same compound, the GI50 (HS 578T breast) was 31.6 µM, the TGI (HS 578T breast) was over 100 µM and the GI50 (IGROV1 ovarian) was 0.0262 µM. It also gave a TGI (IGROV1 ovarian) of 0.132 µM, a GI50 (SF-295 CNS) of 2.31 µM and a TGI (SF-295 CNS) of 8.91 µM. It also gave a GI50 (SK-MEL-28 melanoma) of 60.2 µM, a TGI (SK-MEL-28 melanoma) of over 100 µM and a GI50 (TK-10 renal) of 3.1 µM. The GI50 (OVCAR-5 ovarian) was 0.453 µM, the TGI (OVCAR-5 ovarian) was 40.5 µM and the GI50 (UACC-257 melanoma) was over 100 µM. The TGI (UACC-257 melanoma) was over 100 µM, the TGI (SNB-75 CNS) was over 100 µM and the GI50 (NCI-H226 lung) was 22.2 µM. It also gave a TGI (NCI-H226 lung) of over 100 µM, a GI50 (SK-MEL-5 melanoma) of over 100 µM and a TGI (SK-MEL-5 melanoma) of over 100 µM. It also gave a GI50 (EKVX NSCLC) of 0.0521 µM, a TGI (EKVX NSCLC) of 0.201 µM and a GI50 (HT29 colon) of 0.22 µM. The TGI (HT29 colon) was 3.01 µM, the GI50 (DU-145 prostate) was 0.348 µM and the TGI (DU-145 prostate) was 8.8 µM. For the same compound, the GI50 (MDA-MB-231 breast) was 0.106 µM, the TGI (MDA-MB-231 breast) was 3.13 µM and the GI50 (HOP-62 NSCLC) was 0.268 µM. For the same compound, the TGI (HOP-62 NSCLC) was 4.95 µM, the GI50 (HCT-116 colon) was 0.655 µM and the TGI (HCT-116 colon) was over 100 µM. The GI50 (HCT-15 colon) was 0.592 µM, the TGI (HCT-15 colon) was over 100 µM and the GI50 (HOP-92 NSCLC) was 0.152 µM. For the same compound, the TGI (HOP-92 NSCLC) was 0.426 µM, the GI50 (U251 CNS) was 0.371 µM and the TGI (U251 CNS) was 3.67 µM. For the same compound, the GI50 (KM12 colon) was 0.162 µM, the GI50 (UACC-62 melanoma) was 36 µM and the TGI (UACC-62 melanoma) was over 100 µM. For the same compound, the GI50 (A549 NSCLC) was 1.83 µM, the TGI (A549 NSCLC) was 22.4 µM and the GI50 (MCF7 breast) was 0.51 µM. For the same compound, the TGI (MCF7 breast) was over 100 µM, the GI50 (NCI-H23 lung) was 0.0394 µM and the TGI (NCI-H23 lung) was 0.182 µM. It also gave a GI50 (COLO 205 colon) of 23.3 µM, a TGI (COLO 205 colon) of over 100 µM and a GI50 (SF-268 CNS) of 2.38 µM. It also gave a TGI (SF-268 CNS) of 99.5 µM, a GI50 (ACHN renal) of 0.0742 µM and a TGI (ACHN renal) of 0.986 µM. The GI50 (BT-549 breast) was 1.92 µM and the TGI (BT-549 breast) was over 100 µM.
